# Laboratory results published in patent US20060058320A1, “[1,2,4] Triazolo[1,5-c]pyrimidine derivatives” (KYOWA HAKKO KOGYO CO., LTD., priority 2002, published 2006).
# Counter-ions that a name gives are not always drawn.
# Experiments:
# [1] = test system: CGS 21680-induced catalepsy; assay: Activity on CGS 21680-induced catalepsy; type: in vivo, mice; conditions: 10 mg/kg orally; for inhibition in vivo at 10 mg/kg: Mus musculus, po, from total score of test group and control group, read-out: Remission ratio (%); for Total score: total catalepsy score of 10 mice (maximum 50 points; 40 points or less = positive), one hour after administration
# Experimental: Parkinson's disease is a motor disorder based on degeneration and cell death of the nigrostriatal dopaminergic neurons. When CGS 21680 (adenosine A2A receptor agonist) is administered into the intracerebral ventricle, the inhibitory synaptic transmission of GABA in the medium sized spiny neurons in the corpus striatum is inhibited directly via the adenosine A2A receptor [Journal of Neuroscience, vol. 16, p. 605 (1996)]. Accordingly, it is concidered that the adenosine A2A receptor agonists positively regulate the output of the GABAergic neurons from the corpus striatum to the globus pallidus lateralis, and, as a result, catalepsy is induced by the administration of CGS 21680.
# The test was carried out using ten 5-week age male ddY mice (22-25 g in body weight, Japan SLC) per group. CGS 21680 (produced by RBI Co) was dissolved in physiological saline (produced by Otsuka Pharmaceutical Co., Ltd.), and 10 μg/20 μL of the solution was injected into mouse intracerebral ventricle. Each test compound was used by suspending it in distilled water containing 0.3% of polyoxylene (20) sorbitan monooleate (referred to as “Tween 80” hereinafter) (produced by Otsuka Pharmaceutical Co., Ltd.). The suspension containing each test compound or a solution containing no test Compound (distilled water containing 0.3% of Tween 80; used as a control) was orally administered (0.1 mL per 10 g of mouse body weight) 30 minutes before the injection of CGS 21680 into the intracerebral ventricle. One hour after the administration of the each test compound, only forelimbs or only hindlimbs of each mouse were laid on a vertically arranged stand made of acryl and having a size of 4.5 cm in height and 1.0 cm in width to measure catalepsy symptoms. All of the test compounds were administered orally in a dose of 10 mg/kg.
# The criteria of the catalepsy score are shown below.
# The effect was decided by a total catalepsy score of 10 mice in one group (the maximum score: 50 points). When the total score was 40 points or less, the activity of the compounds was decided positive. The number of the animals showing remission of catalepsy was expressed by the number of cases showing a catalepsy score of 4 points or less in 10 cases. The catalepsy remission ratio was expressed as the percentage of the total score in the test compound-administered group to the total score in the control group.
Compound,melting point,inhibition in vivo at 10 mg/kg [1] [%],Total score [1]
"COc1ccc(CNCc2cc3nc(-c4ccco4)nn3c(N)n2)cc1OC (as salt: hydrochloride) [Compound 42, 5-Amino-7-(3,4-dimethoxybenzylaminomethyl)-2-(2-furyl)-[1,2,4]triazolo[1,5-c]pyrimidine dihydrochloride]",241.2 to 241.5 °C,,
"Cc1noc(C)c1-c1cc2nc(-c3ccco3)nn2c(N)n1 [Compound 57, 5-Amino-7-(3,5-dimethylisoxazol-4-yl)-2-(2-furyl)[1,2,4]-triazolo[1,5-c]pyrimidine]",227.8 to 228.5 °C,,
"Nc1nc(COc2ccccn2)cc2nc(-c3ccco3)nn12 [Compound 32, 5-Amino-2-(2-furyl)-7-(pyridin-2-yloxymethyl)[1,2,4]-triazolo[1,5-c]pyrimidine]",229 to 229.2 °C,,
"CCN1CCN(Cc2cc3nc(-c4ccco4)nn3c(N)n2)CC1 (as salt: hydrochloride) [Compound 48, 5-Amino-7-(4-ethylpiperazin-1-ylmethyl)-2-(2-furyl)[1,2,4]-triazolo[1,5-c]pyrimidine trihydrochloride]",262 to 262.4 °C,,
"Nc1nc(/C=C/CNCC2CC2)cc2nc(-c3ccco3)nn12 (as salt: HCl) [Compound 68, 5-Amino-7-[3-(cyclopropylmethylamino)-(E)-propan-1-en-1-yl]-2-(2-furyl)[1,2,4]triazolo[1,5-c]pyrimidine]",263.5 to 264.2 °C,,
"COc1ccc(CN(Cc2cc3nc(-c4ccco4)nn3c(N)n2)C(C)=O)cc1OC [Compound 34, 7-[(N-acetyl-3,4-dimethoxybenzylamino)methyl]-5-amino-2-(2-furyl)[1,2,4]triazolo[1,5-c]pyrimidine]",136 to 136.5 °C,,
Nc1nc(COc2ccccc2)cc2nc(-c3ccco3)nn12,247.2 to 247.4 °C,,
"Nc1nc(-c2csc(NCCN3CCOCC3)n2)cc2nc(-c3ccco3)nn12 [Compound 59, 5-Amino-2-(2-furyl)-7-[2-(2-morpholinoethylamino)thiazol-4-yl][1,2,4]triazolo[1,5-c]pyrimidine]",274.7 to 275 °C (dec.),,
Nc1nc(C(=O)NCC2CCCCC2)cc2nc(-c3ccco3)nn12,273.5 to 274 °C,,
"CC(=O)NCCNCc1cc2nc(-c3ccco3)nn2c(N)n1 [Compound 45, 5-Amino-7-[2-(N-acetylamino)ethylaminomethyl]-2-(2-furyl)-[1,2,4]triazolo[1,5-c]pyrimidine]",190.5 to 190.9 °C,,
COc1cc(CNCc2ccccc2-c2cc3nc(-c4ccco4)nn3c(N)n2)cc(OC)c1 (as salt: hydrochloride),213.5 to 214.3 °C,,
"Nc1nc(-c2cccc(C=O)c2)cc2nc(-c3ccco3)nn12 [Compound 18, 5-Amino-7-(3-formylphenyl)-2-(2-furyl)[1,2,4]triazolo[1,5-c]pyrimidine]",212.8 to 213.2 °C,,
"Nc1nc(CNc2ccccc2)cc2nc(-c3ccco3)nn12 [Compound 36, 5-Amino-7-anilinomethyl-2-(2-furyl)[1,2,4]triazolo[1,5-c]-pyrimidine]",279.2 to 279.6 °C,,
"Nc1nc(-c2ccccn2)cc2nc(-c3ccco3)nn12 [Compound 52, 5-Amino-2-(2-furyl)-7-(2-pyridyl)[1,2,4]triazolo[1,5-c]-pyrimidine]",,84,8
"CC(C)(O)c1ccccc1OCc1cc2nc(-c3ccco3)nn2c(N)n1 [Compound 29, 5-Amino-7-[2-(1-hydroxy-1-methylethyl)phenoxymethyl]-2-(2-furyl)[1,2,4]triazolo[1,5-c]pyrimidine]",,88,6
"Nc1nc(C(=O)N2CCC(O)(Cc3ccccc3)CC2)cc2nc(-c3ccco3)nn12 [Compound 162, 5-Amino-2-(2-furyl)[1,2,4]triazolo[1,5-c]pyrimidin-7-yl 4-benzyl-4-hydroxypiperidino ketone]",,72,13
